The source of these data is patent publication US6355785B1, “Guanosine-rich oligonucleotide integrase inhibitors” (Aronex Pharmaceuticals, Inc., priority 1993, dated 2002).

“Also recorded” adds a separate entry of the source. Like-named read-outs stand apart in the source and are kept apart here. Marks after values point to notes of the source that are not given here.

One series relates to HIV-2 (ROD, EHO). As to the kind of experiment: HIV-2 infection assay in MT4 cells. The series is classed as cell-based. Conditions: read-out: IC50 virus production.
Another series deals with HIV-1RF. As to the kind of experiment: HeLa-CD4-LTR-β-galactosidase cell virus infection assay. The series is classed as cell-based.
The test system of the next series is HIV-1IIIB. The experiment in a line: Long term suppression assay, MT-4 cells. The class given is cell-based.
The target in a further series is T1, HIV-2 integrase (Human immunodeficiency virus type 2 subtype A, UniProt P04584).
T1 construct: A plasmid encoding the HIV-2 integrase was generously provided by Dr. R. H. A. Plasterk; made in house
T1 sequence (P04584 1172-1464): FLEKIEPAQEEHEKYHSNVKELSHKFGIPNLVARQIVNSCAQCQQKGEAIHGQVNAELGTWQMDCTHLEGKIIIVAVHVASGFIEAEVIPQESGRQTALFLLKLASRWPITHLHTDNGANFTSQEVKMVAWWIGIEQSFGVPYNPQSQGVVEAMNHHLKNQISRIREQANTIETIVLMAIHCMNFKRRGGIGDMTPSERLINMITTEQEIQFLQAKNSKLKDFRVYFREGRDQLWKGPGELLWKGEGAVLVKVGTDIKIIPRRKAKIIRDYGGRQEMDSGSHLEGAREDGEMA
The experiment in a line: HIV-2 integrase 3′-processing assay. The class given is biochemical. Conditions: HIV-1 DNA.

A further series addresses T2, FIV integrase (Feline immunodeficiency virus, UniProt P16088).
T2 construct: Purified recombinant wild-type FIV and SIV integrases were generous gifts; purchased gift of Dr. S. Chow (UCLA) (not bought)
As to the kind of experiment: FIV integrase 3′-processing assay. The series is classed as biochemical.

The target in another series is T3, HIV-1 integrase IN1-288 (Human immunodeficiency virus type 1 group M subtype B, UniProt P12497).
T3 construct: purchased gift of Drs; T. Jenkins and R. Craigie, NIDDK, NIH (not bought; the expression system was also provided)
The experiment in a line: Disintegration assay, wild-type integrase. The series is classed as biochemical.

Series [1] concerns the target T4, HIV-1 integrase deletion mutant IN1-212 (Human immunodeficiency virus type 1 group M subtype B, UniProt P12497).
T4 construct: purchased gift of Drs; T. Jenkins and R. Craigie, NIDDK, NIH (not bought)
As to the kind of experiment: Disintegration assay, IN1-212. The class given is biochemical.

Series [2] addresses T5, HIV-1 integrase catalytic core IN50-212 (Human immunodeficiency virus type 1 group M subtype B, UniProt P12497).
T5 construct: purchased gift of Drs; T. Jenkins and R. Craigie, NIDDK, NIH (not bought)
The experiment in a line: Disintegration assay, IN50-212. The series is classed as biochemical. Conditions: IN50-212, 3 μM.

Series [3] has as its target T6, HIV-1 integrase deletion mutant IN50-288 (Human immunodeficiency virus type 1 group M subtype B, UniProt P12497).
T6 construct: purchased gift of Drs; T. Jenkins and R. Craigie, NIDDK, NIH (not bought)
The experiment in a line: Disintegration assay, IN50-288. The class given is biochemical. Conditions: IN50-288, 3 μM.

A short description of series [4]: Thermal denaturation of oligomer fold (UV, Tm). The series is classed as physicochemical.
On the set-up of series [5]: species or system cynomolgus monkeys. Conditions: cynomolgus monkey, in vivo. Here is the method:
Dosing. Twelve experimentally naive cynomolgus monkeys were assigned to four groups of three animals each. Prior to dosing, each animal was lightly sedated with a combination of ketamine (1 0 mg/kg) and diazepam (0.5 mg/kg), and a catheter was introduced into the femoral artery for recording central arterial pressure. Monkeys were given a single intravenous infusion of 5, 20, or 50 mg AR177/kg or saline over ten minutes through a cephalic vein catheter using a Harvard infusion pump. Arterial blood samples were drawn at −10, +10, +20, +40, +60 and +120 minutes relative to the initiation of infusion into EDTA-containing tubes for hematology, complement factors, coagulation assay, serum chemistry, and plasma AR177 determination. At 24 hours post-infusion, blood was drawn via the femoral vein into EDTA-containing tubes for these same parameters. The concentration of AR177 in dosing solutions was confirmed post experiment by absorbance at 280 nm on a spectrophotometer. For the determination of AR177 by HPLC, the plasma fraction was obtained by low speed centrifugation of blood, and stored at −20° C. until used. Electrocardiograms (ECGs), central pressure, and heart rate were recorded continuously for 120 minutes following the initiation of doing. Table E-1 summarizes the study design. […]
Complement factors. The complement split product Bb and total hemolytic complement CH50 were determined. […]

Another series has as its system HIV-1DV. The experiment in a line: Analysis of HIV-1 RNA and DNA in single cycle assays, SUP T1. The class given is cell-based.
The subject of a further series is SIVMAC251. The series is classed as cell-based, simian immunodeficiency virus. Conditions: SIVMAC251, MT4; read-out: IC50 virus production.
For series [6] the following is noted: cynomolgus monkey, up to 236 ug/mL.

Usually IC50 stands for the concentration that inhibits the measured activity by half. One may read the Tm as the temperature at which the thermal transition is half complete.

Consider “5′-gtggtgggtgggtgggt-3′ (GTGGTGGGTGGGTGGGT; phosphorothioate termini, further chemistry not given here) [T30177, pPT version of parent compound I100-15, 17 mer]”, for which the IC50 in the series on HIV-2 (ROD, EHO) (HIV-2EHO) is 5980 ± 1050 nM; with HIV-2 (ROD, EHO) (HIV-2ROD), 27500 ± 11600 nM; in the series with HIV-1RF (HIV-1RF, read-out: IC50 β-galactosidase production, virus infection assay), 9 nM; with HIV-2 integrase it was 90 nM; in the series with FIV integrase, 175 nM; with HIV-1 integrase IN1-288, 270 nM. In addition, in series [1], the IC50 is 600 nM. In addition, in the series with HIV-1RF (up to 10 μM, control experiment), the “direct effect on β-galactosidase enzyme activity” value is recorded as “no observable direct effect”. Also, the “viral DNA (PCR) 11 days after removal of drug” value with HIV-1IIIB was “unable to detect the presence of viral DNA; also recorded: no detectable viral cDNA”. Further, the “protection of treated cells from reinfection with HIV-1IIIB” value in the series on HIV-1IIIB (100-fold over IC50, 4 days) is recorded as “no protection of cells from the second round of viral infection”. Besides, the inhibition of disintegration in series [2] and in series [3] was no more than 30% each time. Further, the Tm in series [4] (1 mM KCl) is 53 °C; in [4] (10 mM KCl, calculated from linear fit), 70* ° C; in series [4] (180 mM KCl, calculated from linear fit), 92* ° C. For the same compound, the CH50 levels entry in series [5] is “small and transient decreases”. Moreover, the “change in CHX (CH50) levels” value in series [5] is listed as −25%.

As to `Cc1cn([C@H]2C[C@H](N=[N+]=[N-])[C@@H](CO)O2)c(=O)[nH]c1=O` [AZT, 3′-azido-3′-deoxythymidine], in the series with HIV-1DV (36 hr post-infection), the “viral DNA synthesis (PCR)” value is “marked decrease in viral DNA synthesis”. Further, in the series on HIV-1DV (drug added at zero hours), the “HIV-1 specific transcript (RT-PCR)” value is recorded as “viral mRNA was still being produced”.

Consider “5′-gtggtgggtgggtgggt-3′ [T30177] (GTGGTGGGTGGGTGGGT; phosphorothioate termini, further chemistry not given here)”, for which the half-inhibitory concentration (IC50) in the series on SIVMAC251 came out at 1500 ± 1200 nM. The compound further had an IC50 virus-induced cytopathogenicity in the series with Influenza A (H3N2) (Influenza A (H3N2)) greater than 125 µg/mL. Further, the “MCC minimum concentration altering normal cell morphology” value in the series on Influenza A (H3N2) (Influenza A (H3N2) assay) is greater than 200 μg/mL. Also, the “complement CH50” value in series [6] is given as “no effect”. The “Body Weights” value stood at 3.1 ± 0.6 (2.5 mg/kg, Day 7); 3.2 ± 0.6 (2.5 mg/kg, Day 14); 3.2 ± 0.6 (2.5 mg/kg, Day 21); 3.1 ± 0.6 (2.5 mg/kg, Day 25); 3.1 ± 0.5 (2.5 mg/kg, Prestudy); 3.2 ± 0.7 (10 mg/kg, Day 7). Also, the “Body Weights” value (10 mg/kg, Day 14) is 3.3 ± 0.7; the “Body Weights” value (10 mg/kg, Day 21) turned out to be 3.3 ± 0.7; the “Body Weights” value (10 mg/kg, Day 25) is given as 3.2 ± 0.7; the “Body Weights” value (10 mg/kg, Prestudy) is 3.2 ± 0.7; the “Body Weights” value (40 mg/kg, Day 7) is recorded as 3.2 ± 0.6; the “Body Weights” value (40 mg/kg, Day 14) was 3.3 ± 0.6. In addition, the “Body Weights” value (40 mg/kg, Day 21) is listed as 3.2 ± 0.6; the “Body Weights” value (40 mg/kg, Day 25) is on record as 3.1 ± 0.6; the “Body Weights” value (40 mg/kg, Prestudy) is reported as 3.2 ± 0.6. Further, the treatment-related clinical sign entry (40 mg/kg) is “discoloration around the eyes in three high-dose animals”. Also, for the setting “2.5, 10, 40 mg/kg every other day, 12 doses”, the mortality result was “No animals died”. The body weight result (12 doses) is “no effects on body weight”. The ECG recordings result (cynomolgus monkey, in vivo) is “No abnormalities”.
